Entries after “also recorded” stand apart in the source; their conditions may differ.
Columns and labels:
SOD1-G93A = biological target: T1, SOD1-G93A (Homo sapiens, UniProt P00441, G94A); assay: Dot blot analysis of recombinant SOD1 reacted with compound; format: biochemical; settings: FIG. 5F
T1 construct: GST (TEV site) (N); made in house; host or cells: Escherichia coli BL21 (DE3)
Procedure: To prepare recombinant proteins, human SOD1 (WT, A4V, G37R, G85R, G93A) was added to EcoRI and HindIII sites of pGEX-TEV vector, an improved vector made by adding a TEV protease cleavage site to pGEX-4T1 (Invitrogen). The recombinant proteins were expressed as GST-fusion proteins in Escherichia coli (E. coli) strain BL21 (DE3). The proteins were purified by glutathione-affinity chromatography.
To detect misfolded SOD1 expression, cells transfected with SOD1 vector were treated with the compounds for 24 hours. After reaction, the cells were lysed with a lysis buffer without surfactant, and then cell lysate was fixed on a nitrocellulose membrane using a Bio-Dot SF Microfiltration apparatus (Bio-Rad Laboratories, Hercules, CA). In the case of peptide reaction, SOD1 recombinant proteins were reacted with the compounds for 1 hour, and then samples were loaded onto membrane. Each membrane was washed with TBS and blocked with 3% skim milk to prevent non specific reaction. After blocking, the membrane was reacted with the misfolded SOD1 or Actin antibody (1:8,000 in TBST including 1% skim milk) for 30 minutes, and then with a secondary antibody (goat anti-mouse IgG-horseradish peroxidase, 1:50,000 in 1% skim milk blocking buffer) for 30 minutes. Antibodies reacted to proteins were detected by ECL and X-ray film exposure. Actin was used as a loading control.

SOD1^G93A-Tg mice [1] = assay: In vivo drug treatment of ALS model mice (grip strength, behaviour, histology, survival); parameters: species or system mouse
Procedure: An experiment was performed in a facility approved by the Association for Laboratory Animal Care Assessment and Accreditation in accordance with the animal policy approved by Busan National University. B6SJL-Tg (SOD1^G93A) mice were purchased from Jackson Laboratory (Stock No: 002726). All mice were maintained under temperature and light-controlled conditions (20˜23° C., light-dark cycle 12 hr-12 hr) and were provided with sterile food and water.
Vehicle (DMSO) and SLC-B036 (10 mg/kg, 20 mg/kg) were administered to 12-week-old or 14-week-old SOD1^G93A mice via intraperitoneal injection twice weekly for 6 weeks. Control mice were treated under the same conditions. For histological analysis, mice were sacrificed at 18 weeks. After dissection of mice, spinal cord was fixed with 4% paraformaldehyde for 48 hours according to basic tissue processing procedures, and embedded in a paraffin block. An embedded tissue (cervical region of the spinal cord) was cut into 5 μm with a Leica microtome, and transferred to an adhesive-coated slide (Marienfeld laboratory glassware, Germany). After deparaffinization and rehydration, the slide was stained with hematoxylin and eosin to determine the number of spinal nerves.
For behavioral experiment, grip strength was checked every 2 weeks using a grip strength meter. The mice were allowed to grasp a tension bar with their forelimbs, and then their tails were slowly pulled until they released the bar. To observe motility, respiration, and quadriplegia of the mice, image analysis was performed at the end of administration (18-20 weeks).

[2] = Pharmacokinetics (PK) analysis; format: in vivo; settings: FIG. 8E
SOD1^G93A-Tg mice [3] = assay: In vivo drug treatment of ALS model mice (grip strength, behaviour, histology, survival); parameters: species or system mouse; settings: dosing from 14 weeks, observed at 17-weeks of age; FIGS. 7C and 8C
SOD1 [4] = biological target: SOD1 (Homo sapiens, UniProt P00441); assay: Immunofluorescence staining of SOD1 aggregation and misfolded SOD1; format: cell-based
SOD1 (Homo sapiens, UniProt P00441), sequence (P00441 2-154): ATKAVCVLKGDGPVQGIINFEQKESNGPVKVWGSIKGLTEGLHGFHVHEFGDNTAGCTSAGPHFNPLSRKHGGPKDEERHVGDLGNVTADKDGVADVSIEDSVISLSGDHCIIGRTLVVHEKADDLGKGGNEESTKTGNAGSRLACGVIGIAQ
Procedure: (§1) Cells on coverslip were washed with PBS, fixed with 4% PFA at room temperature for 30 minutes, and then infiltrated with 0.1% Triton X-100/PBS for 10 minutes. The cells were treated with blocking solution (anti-Human Antibody 1:500 dilution in PBS) for 1 hour, and then cells were reacted with anti-pan SOD1 (1:400 dilution), misfolded SOD1 (B8H10; 1:200 dilution in blocking solution) at 4° C. overnight. Finally, the cells were reacted with FITC and rhodamine-conjugated secondary antibody at 4° C. for 6 hours. Nuclei were stained with 4,6-diamidino-2-phenylindole (DAPI), and endoplasmic reticula (ERs) were stained with ER-Tracker Red dye for 10 minutes. The cells were washed 3 times with PBS, and then coverslips were mounted with mounting solution [H-5501; Vector Laboratories (Burlingame, CA, USA)] and analyzed by fluorescence microscopy (Zeiss).
(§2) GFP-SOD1 (WT, G85R, G93A), non-tagged SOD1 (WT, A4V, G37R, G85R, G93A) and tdTomato-TDP43 expression vectors were purchased from Addgene (Cambridge, MA, USA). Transfection was performed using Jet-PEI reagent (JetPEI; Polyplus transfection, New York, NY, USA) according to the manufacturer's protocol. Briefly, vectors were mixed with JetPEI reagent in 150 mM NaCl buffer, and then mixture was reacted for 15 minutes. The mixture was added to cells in serum-free medium and reacted for 4 hours. After reaction, the cells were replaced with a culture medium supplemented with 10% FBS.

SOD1 [5] = assay: as above; format: cell-based, human; settings: Table 1; IF staining of SOD1
Procedure: as §1, §2

normal human fibroblasts = assay: Cell viability measurement (MTT), normal fibroblasts; format: cell-based; settings: for cytotoxic effect in normal fibroblasts: MTT, FIG. 4E, FIG. 9B
Procedure: HEK293 cells were purchased from American Type Culture Collection (ATCC, Manassas, VA, USA) and maintained at 37° C. and 5% CO2 in DMEM liquid medium including 10% fetal bovine serum and 1% penicillin-streptomycin. SK—N—SH cells were purchased from Korean Cell Line Bank (KCLB, Seoul, South Korea) and maintained in MEM medium including 10% fetal bovine serum, 1% antibiotic, 25 mM HEPES, and 300 mg/L L-Glu. Human fibroblasts (person) were purchased from Coriell Cell Repositories (New Jersey, USA) and maintained in EMEM including 15% FBS, 2 mM Glutamine, and 26 mM HEPES without antibiotics. Thapsigargin (ER calcium scavenger: CAS 67526-95-8) was purchased from Calbiochem (Darmstadt, Germany). CoCl2 (hypoxia-inducer: C8661) was purchased from Sigma Aldrich (St, Louis, Mo, USA).
To check cells viability, the cells were reacted with 0.5 mg/ml MTT solution (475989; Merck, Darmstadt, Germany) at 37° C. for 4 hours. After removing residual solution and washing with PBS, precipitate was dissolved in 200 μl DMSO, and quantified by measuring absorbance at 540 nm.

T1 sequence (P00441 whole entry G94A): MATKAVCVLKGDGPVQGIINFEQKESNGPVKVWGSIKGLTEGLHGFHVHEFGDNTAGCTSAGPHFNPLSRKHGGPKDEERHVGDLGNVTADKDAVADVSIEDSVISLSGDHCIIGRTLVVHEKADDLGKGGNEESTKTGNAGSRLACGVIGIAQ

COc1cc(/C=C/C(=O)O[C@H]2Cc3cc4ccc(=O)oc4cc3OC2(C)C)ccc1O [PRG-A-01, (S)-8,8-dimethyl-2-oxo-7,8-dihydro-2H,6H-pyrano[3,2-g]chromen-7-yl (E)-3-(4-hydroxy-3-methoxyphenyl) acrylate]
recognition of mutant SOD1 by misfolding-specific antibody (SOD1-G93A): inhibits misfolding of mutant SOD1; also recorded: antibody specific for misfolding did not recognize mutant SOD1
dose dependence of effect on grip strength (SOD1^G93A-Tg mice [1]; 20 mg/kg more effective than 10 mg/kg, FIGS. 8A and 8B): dose-dependent effect
effects in ALS model mice (SOD1^G93A-Tg mice [1]; FIGS. 11A and 11B, summary statements): protective effect against muscle weakness and movement disorder
lifespan extension (SOD1^G93A-Tg mice [1]; Kaplan-Meier survival, FIG. 8D): 10 days
In vivo (SOD1^G93A-Tg mice [1]; Table 1, ALS model mice): Effect ○
muscle strength compared to wild-type mice (SOD1^G93A-Tg mice [1]; i.p. twice a week, administration from 12 weeks of age, grip strength, FIG. 7B): about 70%
viability of cervical spinal nerves, histological analysis (SOD1^G93A-Tg mice [1]; spinal cord, H&E, FIG. 7D): intraspinal nerves were maintained and high
muscle function, late treatment (SOD1^G93A-Tg mice [1]; starting at 14 weeks of age, forelimb grip strength, FIGS. 8A and 8B): good effect on muscle function
time to disappearance in body / blood [2]: ≤ 30 min
motor capacity, behavioral observation (SOD1^G93A-Tg mice [3]): still had motor capacity
misfolded SOD1 / SOD1 aggregation induced by hypoxic stress (SOD1 [4]; CoCl2, FIG. 6C): blocks SOD1 aggregation induced by hypoxic stress; also recorded: reduced
SOD1 aggregation induced by TDP-43 overexpression, immunofluorescence (SOD1 [4]; FIG. 5A): inhibited; also recorded: reduce the SOD1 aggregation as well as TDP-43
Immuno-fluorscence (SOD1 [5]): Effect ○
cytotoxic effect in normal fibroblasts (normal human fibroblasts): not cytotoxic
cytotoxic effect in normal fibroblasts (normal human fibroblasts; listed as SLC-B036): did not exhibit cytotoxic effect
Toxicity (MTT) (normal human fibroblasts; Table 1, cell type not given, neurons (FIG. 9A) and normal fibroblasts (FIG. 9B)): No

Reference: patent publication US12448393B2, “Use of novel compound, for preventing, improving or treating amyotrophic lateral sclerosis” (PRG S&TECH INC., priority 2019, dated 2025)
